Data as given in US8637525B2, “Compounds for the reduction of beta-amyloid production” (Bristol-Myers Squibb Company, priority 2009, dated 2014).
Where a name gives a salt, the structure may show the parent alone.

Each molecule was assayed on Aβ1-42 production (assay: Cellular assay for inhibition of Aβ1-42 production (H4 APP751 SWE clone 8.20)). Conditions: 19 h, H4 APP751 SWE clone 8.20 cells, 19 h incubation; class symbols; read-out: Activity Rating (Aβ42 cellular IC50).
Type: cell-based
How it was run: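 Cells incubate with compound for 19 h (37 °C, 5% CO2), the plate is briefly spun, and antibody mix is added straight to the wells: Wallac-conjugated 565 against the Aβ42 C-terminal neoepitope and APC-conjugated 26D6 against the Aβ N-terminus. After overnight sealing at 4 °C, signal is counted and IC50 fitted.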
`CNc1nc(Nc2ccc(-n3cnc(Cl)c3)c(OC)c2)nc2c1C(O)CC2c1ccccc1` (centres unmarked) [Example 202, 2-(4-(4-chloro-1H-imidazol-1-yl)-3-methoxyphenylamino)-4-(methylamino)-7-phenyl-6,7-dihydro-5H-cyclopenta[d]pyrimidin-5-ol] was tested, and the IC50 was 1.5 to 9.9 nM.
With `COc1cc(Nc2nc3c(c(N4CC(F)(F)C4)n2)CCC3c2ccc(F)cc2)ccc1-n1cnc(Cl)c1` (centres unmarked) [Example 15, N-(4-(4-Chloro-1H-imidazol-1-yl)-3-methoxyphenyl)-4-(3,3-difluoroazetidin-1-yl)-7-(4-fluorophenyl)-6,7-dihydro-5H-cyclopenta[d]pyrimidin-2-amine] the IC50 was 10 to 100 nM.
Molecule `COc1cc(Nc2nc(N[C@H](C)C3CC3)c3c(n2)C(c2ccc(F)cc2)OC3)ccc1-n1cnc(Cl)c1` (stereo partly drawn) [Example 81, N2-(4-(4-chloro-1H-imidazol-1-yl)-3-methoxyphenyl)-N4-((R)-1-cyclopropylethyl)-7-(4-fluorophenyl)-5,7-dihydrofuro[3,4-d]pyrimidine-2,4-diamine, TFA] has an IC50 of 10 to 100 nM.
`COc1cc(Nc2nc3c(c(N4CC(=O)C4)n2)CCC3c2ccccc2)ccc1-n1cnc(Cl)c1` (centres unmarked) [Example 185, 1-(2-(4-(4-chloro-1H-imidazol-1-yl)-3-methoxyphenylamino)-7-phenyl-6,7-dihydro-5H-cyclopenta[d]pyrimidin-4-yl)azetidin-3-one] was tested, and the IC50 was 10 to 100 nM.
In the case of `COc1cc(Nc2nc3c(c(N4C[C@@H](C)O[C@@H](C)C4)n2)COC3c2ccc(F)cc2)ccc1-n1cnc(Cl)c1` (mixture of isomers) [Example 84, N-(4-(4-chloro-1H-imidazol-1-yl)-3-methoxyphenyl)-4-((2S,6R)-2,6-dimethylmorpholino)-7-(4-fluorophenyl)-5,7-dihydrofuro[3,4-d]pyrimidin-2-amine, 2 TFA], the IC50 is reported as 10 to 100 nM.
Molecule `CNc1nc(Nc2ccc(-n3cnc(Cl)c3)c(OC)c2)nc2c1CCCC2(O)c1ccccc1` (centres unmarked) [Example 178, 2-(4-(4-chloro-1H-imidazol-1-yl)-3-methoxyphenylamino)-4-(methylamino)-8-phenyl-5,6,7,8-tetrahydroquinazolin-8-ol] has an IC50 of 1.5 to 9.9 nM.
With `COc1cc(Nc2ncc3c(n2)C(c2ccccc2)CCC3)ccc1-n1cnc(Cl)c1` (centres unmarked) [Example 125, N-(4-(4-chloro-1H-imidazol-1-yl)-3-methoxyphenyl)-8-phenyl-5,6,7,8-tetrahydroquinazolin-2-amine] the IC50 was 10 to 100 nM.
In the case of `COc1cc(Nc2nc(NCCCO)c3c(n2)C(c2ccc(F)cc2)CC3)ccc1-n1cnc(Cl)c1` (racemic) [Example 43, 3-(2-(4-(4-chloro-1H-imidazol-1-yl)-3-methoxyphenylamino)-7-(4-fluorophenyl)-6,7-dihydro-5H-cyclopenta[d]pyrimidin-4-ylamino)propan-1-ol], the IC50 is reported as 1.5 to 9.9 nM.

Same assay, conditions: 19 h, H4 APP751 SWE clone 8.20 cells, 19 h incubation; read-out: Activity Rating (Aβ42 cellular IC50), numeric value
Work on `CNc1nc(Nc2ccc3nc[nH]c3c2)nc2c1CCC2c1ccccc1` (centres unmarked) [Example 253, N2-(1H-benzo[d]imidazol-6-yl)-N4-methyl-7-phenyl-6,7-dihydro-5H-cyclopenta[d]pyrimidine-2,4-diamine] yielded an IC50 of 5900 nM.
In the case of `COc1cc(Nc2nc3c(c(N(C)C)n2)CCC3c2ccc(OC(F)(F)F)cc2)ccc1-n1cnc(Cl)c1` (single isomer, unassigned) [Example 100A, N^2-(4-(4-chloro-1H-imidazol-1-yl)-3-methoxyphenyl)-N^4,N^4-dimethyl-7-(4-(trifluoromethoxy)phenyl)-6,7-dihydro-5H-cyclopenta[d]pyrimidine-2,4-diamine], the IC50 is reported as 4.7 nM.
With `COc1cc(Nc2nc3c(c(N4CCN(C)CC4)n2)CCC3c2ccc(F)cc2)ccc1-n1cnc(Cl)c1` (single isomer, unassigned) [Example 30B, N-(4-(4-chloro-1H-imidazol-1-yl)-3-methoxyphenyl)-7-(4-fluorophenyl)-4-(4-methylpiperazin-1-yl)-6,7-dihydro-5H-cyclopenta[d]pyrimidin-2-amine] the IC50 was 230 nM.
For `COc1cc(Nc2nc(N[C@H](C)C3CC3)c3c(n2)C(c2ccc(C(F)(F)F)cc2)COC3)ccc1-n1cnc(Cl)c1` (stereo partly drawn) [Example 117, N2-(4-(4-chloro-1H-imidazol-1-yl)-3-methoxyphenyl)-N4-((R)-1-cyclopropylethyl)-8-(4-(trifluoromethyl)phenyl)-7,8-dihydro-5H-pyrano[4,3-d]pyrimidine-2,4-diamine, TFA], the IC50 was 45 nM.
Work on `CNc1nc(Nc2ccc(F)cc2)nc2c1CCC2c1ccccc1` (centres unmarked) [Example 218, N2-(4-fluorophenyl)-N4-methyl-7-phenyl-6,7-dihydro-5H-cyclopenta[d]pyrimidine-2,4-diamine] yielded an IC50 of 3700 nM.
Work on `CC[C@H](COC)Nc1nc(Nc2ccc(-n3cnc(Cl)c3)c(OC)c2)nc2c1CCC2c1ccc(F)cc1` (single isomer, unassigned) [Example 48B] yielded an IC50 of 130 nM.

Same assay, conditions: H4 APP751 SWE clone 8.20 cells, 19 h incubation; class symbols; read-out: Activity Rating (Aβ42 cellular IC50)
For `CCC1CCCN1c1nc(Nc2ccc(-n3cnc(Cl)c3)c(OC)c2)nc2c1CCC2c1ccc(F)cc1` (single isomer, unassigned) [Example 23A, N-(4-(4-chloro-1H-imidazol-1-yl)-3-methoxyphenyl)-4-(2-ethylpyrrolidin-1-yl)-7-(4-fluorophenyl)-6,7-dihydro-5H-cyclopenta[d]pyrimidin-2-amine], the IC50 was 10 to 100 nM.
`CNc1nc(Nc2ccc(-n3cnc(Cl)c3)c(OC)c2)nc2c1COCC2c1ccc(F)c(F)c1` (centres unmarked) [Example 115A, N2-(4-(4-chloro-1H-imidazol-1-yl)-3-methoxyphenyl)-8-(3,4-difluorophenyl)-N4-methyl-7,8-dihydro-5H-pyrano[4,3-d]pyrimidine-2,4-diamine] was tested, and the IC50 was 1.5 to 9.9 nM.
Work on `CNc1nc(Nc2ccc(-n3cnc(Cl)c3)c(OC)c2)nc2c1COCC2c1ccc(C(F)(F)F)cc1` (centres unmarked) [Example 120B, N2-(4-(4-chloro-1H-imidazol-1-yl)-3-methoxyphenyl)-N4-methyl-8-(4-(trifluoromethyl)phenyl)-7,8-dihydro-5H-pyrano[4,3-d]pyrimidine-2,4-diamine] yielded an IC50 of 100 to 1000 nM.
For `CCNc1nc(Nc2ccc(-n3cnc(Cl)c3)c(OC)c2)nc2c1CN(C(=O)COC)CC2c1ccccc1` (centres unmarked) [Example 133A, 1-(2-(4-(4-chloro-1H-imidazol-1-yl)-3-methoxyphenylamino)-4-(ethylamino)-8-phenyl-7,8-dihydropyrido[4,3-d]pyrimidin-6(5H)-yl)-2-methoxyethanone], the IC50 was 1.5 to 9.9 nM.
`CCC1CCCN1c1nc(Nc2ccc(-n3cnc(Cl)c3)c(OC)c2)nc2c1CCC2c1ccc(F)cc1` (single isomer, unassigned) [Example 24, N-(4-(4-chloro-1H-imidazol-1-yl)-3-methoxyphenyl)-4-(2-ethylpyrrolidin-1-yl)-7-(4-fluorophenyl)-6,7-dihydro-5H-cyclopenta[d]pyrimidin-2-amine] was tested, and the IC50 was 10 to 100 nM.
`CNc1nc(Nc2ccc(-n3cnc(Cl)c3)c(OC)c2)nc2c1CCC2c1ccccc1` (single isomer, unassigned) [Example 7A, N^2-(4-(4-chloro-1H-imidazol-1-yl)-3-methoxyphenyl)-N^4-methyl-7-phenyl-6,7-dihydro-5H-cyclopenta[d]pyrimidine-2,4-diamine] gave an IC50 of 1.5 to 9.9 nM.
In the case of `CNc1nc(Nc2ccc(-n3ncnc3C)c(F)c2)nc2c1COC2c1ccc(F)cc1` (centres unmarked) [Example 82B, N2-(3-fluoro-4-(5-methyl-1H-1,2,4-triazol-1-yl)phenyl)-7-(4-fluorophenyl)-N4-methyl-5,7-dihydrofuro[3,4-d]pyrimidine-2,4-diamine], the IC50 is reported as 10 to 100 nM.
Molecule `CNc1nc(Nc2ccc(-n3ncnc3C)c(F)c2)nc2c1CCC2c1ccc(F)cc1` (centres unmarked) [Example 26, N^2-(3-fluoro-4-(5-methyl-1H-1,2,4-triazol-1-yl)phenyl)-7-(4-fluorophenyl)-N^4-methyl-6,7-dihydro-5H-cyclopenta[d]pyrimidine-2,4-diamine] has an IC50 of 1.5 to 9.9 nM.

Same assay, conditions: H4 APP751 SWE clone 8.20 cells, 19 h incubation; read-out: Activity Rating (Aβ42 cellular IC50), numeric value
`COc1cc(Nc2nc3c(c(N4CC(C)(OC)C4)n2)CCC3c2ccc(F)cc2)ccc1-n1cnc(C)n1` (centres unmarked) [Example 192A, 7-(4-fluorophenyl)-4-(3-methoxy-3-methylazetidin-1-yl)-N-(3-methoxy-4-(3-methyl-1H-1,2,4-triazol-1-yl)phenyl)-6,7-dihydro-5H-cyclopenta[d]pyrimidin-2-amine] was tested, and the IC50 was 170 nM.
